Assay type in all cases: cell-based
The test system of assay [1] is SH-SY5Y human neuroblastoma cells. Nature of the assay: Protection against 6-OHDA-induced cell death, condition A (2 h preincubation, 10% serum). As to conditions: 6-OHDA 75 μM, 16 h, medium with 10% foetal bovine serum. From the text: (§1) The aim of this experiment is to determine the protective effect of the compounds of formula (I) against the toxicity caused by 6-hydroxydopamine (6-OHDA). This toxin induces a cell death similar to which occurs in Parkinson's disease, destroying dopaminergic neurons (“MPTP and 6-hydroxydopamine-induced neurodegeneration as models for Parkinson's disease: neuroprotective strategies”; Grunblatt E, et al.; J Neurol. 2000 April; 247 Suppl 2:1195-102).
(§2) Cells are exposed to the treatment with 6-OHDA and, finally, cell death is measured by LDH quantification. As positive control we used NAC. The assay is performed in two different experimental conditions:
A) NAC and the compound of formula (I) are preincubated during 2 hours before the treatment with 6-OHDA 75 μM during 16 hours. The assay is performed in medium containing 10% Foetal bovine serum.

For assay [2] the test system is unchanged. Nature of the assay: Protection against hydrogen peroxide-induced cell death (LDH). As to conditions: 1 h preincubation, H2O2 100 μM, 24 h. The procedure:
The aim of this assay is to determine the neuroprotective effect of the compounds of formula (I), when human neuroblastoma cells are exposed to oxidative stress induced by hydrogen peroxide, which is highly deleterious to the cell and its accumulation causes oxidation of cellular targets such as DNA, proteins, and lipids leading to mutagenesis and cell death.
SH-SY5Y human neuroblastoma cells are seeded into 96-well culture plate at a density of 10^4 cells/well. Cells are exposed to the different concentrations of the compound one hour before the treatment with H2O2 100 μM during 24 h. 5 mM NAC, a known anti-oxidant agent was used as a positive control, and preincubated 1 hour before the treatment with H2O2. After 24 h, the medium is removed and cells attached to the bottom of the well are lysed by adding 50 μl of Triton X-100 1% in Krebs-Hepes during 5 minutes at room temperature.
Cell survival was determined in parallel in the same assay.

Assay [3] has the same test system. Nature of the assay: Protection against 6-OHDA-induced cell death, condition B (1 h preincubation, no serum). Particulars: 6-OHDA 50 μM, 24 h, medium without fetal bovine serum.
Source text: as §1, §2
B) NAC and the compound of formula (I) are preincubated during 1 hour before the treatment with 6-OHDA 50 μM during 24 hours. The assay is performed in medium without any fetal bovine serum.

`COc1cc(/C=N/O)nc(-c2ccccn2)c1` [Caerulomycin A]: the “minimum concentration at which neuroprotective” value in assay [1] stood at 1 µM. Besides, the “lowest concentration at which neuroprotective effects were detected” value (“lowest concentration” below) in assay [2] was determined as 0.05 µM. In assay [3], the “minimum concentration showing neuroprotective effect” value worked out at 1 µM.
Take `COc1cc(-c2ccccn2)nc(CO)c1SC` [Collismycin C]: in assay [1], the “neuroprotective activity against 6-OHDA (concentration not given)” value is listed as “neuroprotective activity”. The “lowest concentration” value in assay [2] was 10 µM. For the same compound, in assay [3], the “minimum concentration showing neuroprotective effect” value is 10 µM.
In the case of `CSc1cc(C#N)nc(-c2ccccn2)c1` [Compound 1, 4-Methylsulfanyl-[2,2′]bipyridinyl-6-carbonitrile], the “lowest concentration” value in assay [2] was 5 µM.
With `O/N=C/c1nc(-c2ccccn2)ccc1F` [Compound 2, 5-Fluoro-[2,2′]bipyridinyl-6-carbaldehyde oxime], in assay [1], the “neuroprotective activity against 6-OHDA (concentration not given)” value is “neuroprotective activity”. The “lowest concentration” value in assay [2] amounted to 0.5 µM. For the same compound, the “minimum concentration showing neuroprotective effect” value in assay [3] is 0.5 µM.
In the case of `O/N=C/c1nc(-c2cnccn2)ccc1F` [Compound 3, 3-Fluoro-6-pyrazin-2-yl-pyridine-2-carbaldehyde oxime], in assay [1], the “neuroprotective activity against 6-OHDA (concentration not given)” value is “neuroprotective activity”. Also, the “lowest concentration” value in assay [2] was determined as 10 µM.

For the origin of these results see patent publication US8067441B2, “Use of collismycin and derivatives thereof as oxidative stress inhibitors” (Neuropharma, S.A., priority 2005, dated 2011).
